Structures can show the parent of a compound that is named as a salt.

For series [1], the target named is T1, [3H]ifenprodil binding site, rat forebrain membranes (Rattus norvegicus, UniProt P35439+Q00960).
T1 construct: membrane fraction was prepared from frozen adult rat forebrains; tissue Zivic-Miller Laboratories, Inc; host or cells: adult rat forebrain, washed buffy coat membrane fraction
Nature of the series: [3H]Ifenprodil binding assay. Conditions: 4 nM [3H]-ifenprodil, 2 hours at room temperature. The protocol: All buffers and reagents used in assay incubations or to dissolve drugs were prepared using water purified through a Milli-Q reverse osmosis system (Millipore Corp, Bedford, Mass.) and treated with UV emissions. Prior to use in the assays, buffers were further filtered through a sterile Corning filtration unit (Corning Glass Works, Corning, N.Y.) containing a 0.2-micron filter. Buffer used to rinse the membranes on the assay filters was prepared with purified water, but was not refiltered and was stored no longer than 5 days. Stock solutions of the drugs (usually 10 mM) were dissolved in 20 mM HEPES-KOH buffer pH 7.4 (assay buffer) with the addition of 1 to 5 μL of glacial AcOH, if needed to keep them in solution. For eliprodil the stock solution was buffered with the addition of 10% DMSO. All subsequent dilutions from stock were made in buffer.
An extensively washed buffy coat membrane fraction was prepared from frozen adult rat forebrains (Zivic-Miller Laboratories, Inc., Zelienople, Pa.) as described previously (Coughenour L. L., Cordon, J. J., J. Pharmacol. Exp. Ther., 1997;280:584-592) and stored at −80° C. On the day of the assay, pellets were resuspended in 35 mL of assay buffer at pH 7.4 using a Polytron setting 6. After incubation at 37° C. for 30 minutes in a shaking water bath, the homogenate was centrifuged 40,000×g for 10 minutes at 4° C. The pellets were resuspended in fresh buffer and centrifuged 3 more times before final suspension for use in the assay.
[^3H]Ifenprodil Binding. Triplicate incubations were carried out in a volume of 0.5 mL in 1.3 mL polypropylene tubes (Marsh Biomedical Products Inc., Rochester, N.Y.) for 2 hours at room temperature. Incubations contained test agents, membranes (100-200 μg protein) and 4 nM[^3H]-ifenprodil in 20 mM HEPES-KOH buffer, pH 7.4 (assay buffer). Assays were started by addition of the membranes. Bound radioligand was separated by filtration under reduced pressure using a Tomtec Mach II, 96-well cell harvester (Tomtec Inc., Orange, Colo.). Filtration was through Whatman GF/B glass fiber filters (Whatman Ltd, Maidstone, England), which had been soaked for at least 15 minutes in 0.3% polyethylenimine and allowed to air dry. The filters were rinsed with 3 mL of ice cold assay buffer within 6 seconds. Air was allowed to pass through the filters for an additional 10 seconds to remove residual moisture. The filter mat was supported on a cold (−20° C.) teflon support, and filters from individual wells were separated and placed in Mini Poly-Q vials (Beckman Instruments Inc., Fullerton, Calif.) and filled with 4 mL of scintillation cocktail (Beckman Ready Protein^+). Radioactivity retained on the filter was determined by liquid scintillation spectrophotometry. Nonspecific binding was defined as the binding in the presence of 1 mM ifenprodil. Specific binding was 90%.
Data analysis. Binding curves were statistically analyzed for a best one or two site competition fit using GraphPad Prism software (GraphPad Software Inc., San Diego, Calif.). The normalized data was fit by nonweighted nonlinear regression to either [formula]
Control data was entered as 100%, and no parameters were constrained. Inhibition curves were compared by ANOVA with post test comparisons of the logIC50 using Dunnett's multiple comparisons post test or Student's nonpaired, two-tailed t-test (GraphPad InStat software).

For series [2], the system named is 6-Hydroxydopamine-lesioned rats. Nature of the series: 6-OHDA lesioned rat assay. The series is classed as in vivo. The note with it: for 6-OHDA MED: minimum effective dose to potentiate contraversive rotation induced by L-DOPA methyl ester 10 mg/kg SC, 6-hour period; for 6-OHDA active/inactive at the given dose: statistically significant increase in contraversive rotations vs L-DOPA only. Here is the method: 6-Hydroxydopamine-lesioned rats were used (see Ungerstedt U., Arbuthnott G. W., Quantitative recording of rotational behavior in rats after 6-hydroxy-dopamine lesions of the nigrostraiatal dopamine system. Brain Res., 1971;24(3):485-93). Adult male Sprague-Dawley rats were anesthetized with chloral hydrate and unilateral lesions of the nigrostriatal dopamine system were accomplished by infusion of 8 μg of 6-hydroxydopamine HBr (6-OHDA) into the right medial forebrain bundle. Rats were pretreated 30 minutes before surgery with desipramine HCl 25 mg/kg intraperitoneally (IP) to protect noradrenegic neurons, and pargyline 25 mg/kg IP to potentiate the effects of 6-OHDA. A minimum of 3 weeks after surgery, the rotational behavior induced by apomorphine HCL 50 μg/kg subcutaneously (SC) was assessed.
Rotational behavior was measured using an automatic rotometer system (Rotorat Rotational Activity System, MED Associates, Georgia, Vt.). Anti-parkinsonian activity was assessed as the ability of the compound to potentiate the contraversive rotation induced by L-DOPA methyl ester, 10 mg/kg SC, over a 6-hour period. Experiments were conducted using a crossover paradigm where each rat received either a vehicle plus L-DOPA, or the test compound plus L-DOPA, in randomized order. Rats were tested at 7-day intervals. In experiments in which the compound was tested orally, rats were food deprived for 16 hours. Statistical analysis between treatment groups were performed using a paired t-test. The results were reported in Table 1 as the minimum effective dose (MED) of compound (mg/kg) required to produce a statistically-significant increase in total contraversive rotations compared to rats receiving L-DOPA only.

T1 sequence (Q00960 27-1482, other chains not shown): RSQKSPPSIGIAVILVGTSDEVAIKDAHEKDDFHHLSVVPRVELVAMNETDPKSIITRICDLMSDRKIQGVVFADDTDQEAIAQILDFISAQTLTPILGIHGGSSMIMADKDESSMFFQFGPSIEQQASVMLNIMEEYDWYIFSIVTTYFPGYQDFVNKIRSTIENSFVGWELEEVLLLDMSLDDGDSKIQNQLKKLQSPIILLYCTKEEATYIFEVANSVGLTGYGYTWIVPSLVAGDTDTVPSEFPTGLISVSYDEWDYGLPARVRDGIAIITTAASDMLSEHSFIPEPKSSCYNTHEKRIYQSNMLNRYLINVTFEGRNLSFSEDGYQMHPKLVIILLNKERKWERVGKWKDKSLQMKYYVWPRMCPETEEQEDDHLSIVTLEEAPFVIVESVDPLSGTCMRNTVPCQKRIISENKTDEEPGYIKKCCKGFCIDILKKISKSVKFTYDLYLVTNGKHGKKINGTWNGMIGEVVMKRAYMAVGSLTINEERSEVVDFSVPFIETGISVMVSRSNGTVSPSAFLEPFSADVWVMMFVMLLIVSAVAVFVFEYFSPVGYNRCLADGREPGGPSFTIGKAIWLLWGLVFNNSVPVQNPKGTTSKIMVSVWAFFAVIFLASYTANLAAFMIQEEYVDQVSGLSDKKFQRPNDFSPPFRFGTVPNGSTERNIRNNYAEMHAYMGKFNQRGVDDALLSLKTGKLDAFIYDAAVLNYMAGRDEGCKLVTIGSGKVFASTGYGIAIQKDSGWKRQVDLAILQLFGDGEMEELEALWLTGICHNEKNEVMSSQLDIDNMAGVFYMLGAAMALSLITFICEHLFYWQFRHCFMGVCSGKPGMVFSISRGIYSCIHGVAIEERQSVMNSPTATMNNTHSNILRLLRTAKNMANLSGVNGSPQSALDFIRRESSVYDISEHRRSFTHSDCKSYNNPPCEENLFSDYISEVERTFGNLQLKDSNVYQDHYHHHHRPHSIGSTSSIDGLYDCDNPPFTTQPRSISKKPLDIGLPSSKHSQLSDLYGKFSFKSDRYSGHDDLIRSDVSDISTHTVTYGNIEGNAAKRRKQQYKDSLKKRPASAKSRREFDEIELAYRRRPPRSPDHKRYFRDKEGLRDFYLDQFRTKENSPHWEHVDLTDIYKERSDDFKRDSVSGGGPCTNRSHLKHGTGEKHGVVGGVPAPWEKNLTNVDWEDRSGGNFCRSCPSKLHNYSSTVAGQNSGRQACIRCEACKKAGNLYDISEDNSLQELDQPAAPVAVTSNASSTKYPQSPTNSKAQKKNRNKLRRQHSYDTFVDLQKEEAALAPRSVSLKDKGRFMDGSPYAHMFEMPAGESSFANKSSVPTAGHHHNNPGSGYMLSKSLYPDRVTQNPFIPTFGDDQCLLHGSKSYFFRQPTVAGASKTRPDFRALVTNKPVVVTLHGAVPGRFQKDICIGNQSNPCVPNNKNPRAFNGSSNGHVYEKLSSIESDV

As a reminder, the melting point is the temperature, or range, at which the solid turns liquid. Molecule `CN(CCCc1cccc(F)c1)[C@H]1CC[C@H](c2ccc3[nH]c(=O)oc3c2)CC1` (as salt: HCl) [Example 47b, 6-(trans-4-{[3-(3-Fluorophenyl)propyl]methylamino}cyclohexyl)-3H-benzoxazol-2-one] displayed a melting point of 210 to 238 °C.
Consider `Cc1c(F)cccc1CCCN(C)[C@H]1CC[C@H](c2ccc3[nH]c(=O)oc3c2)CC1` (as salt: HCl) [Example 48b, 6-(trans-4-{[3-(3-Fluoro-2-methylphenyl)propyl]methylamino}cyclohexyl)-3H-benzoxazol-2-one], for which the melting point is 264 to 269 °C.
`CN(CCCC1CCCCC1)[C@H]1CC[C@H](c2ccc3[nH]c(=O)oc3c2)CC1` (as salt: HCl) [Example 49b, 6-{trans-4-[(3-Cyclohexylpropyl)methylamino]cyclohexyl}-3H-benzoxazol-2-one]: the melting point was in the range of 247 to 251 °C.
`CN(CCCc1ccsc1)[C@H]1CC[C@H](c2ccc3[nH]c(=O)oc3c2)CC1` (as salt: HCl) [Example 52b, 6-[trans-4-{[3-(3-Thiophen-3-yl)propyl]methylamino}cyclohexyl)-3H-benzoxazol-2-one]: the melting point was in the range of 246 to 248 °C.
In the case of `CC(C)c1ccc(CCCN(C)[C@H]2CC[C@H](c3ccc4[nH]c(=O)oc4c3)CC2)cc1` (as salt: HCl) [Example 53, 6-(trans-4-{[3-(4-Isopropylphenyl)propyl]methylamino}cyclohexyl)-3H-benzoxazol-2-one], the melting point lay within 179 to 181 °C.
Molecule `CN(CCCc1ccc(Cl)cc1Cl)[C@H]1CC[C@H](c2ccc3[nH]c(=O)oc3c2)CC1` (as salt: HCl) [Example 54, 6-(trans-4-{[3-(2,4-Dichlorophenyl)propyl]methylamino}cyclohexyl)-3H-benzoxazol-2-one] registered a melting point of 273 to 279 °C.
In the case of `CN(CCCc1ccc(F)c(F)c1F)[C@H]1CC[C@H](c2ccc3[nH]c(=O)oc3c2)CC1` (as salt: HCl) [Example 55, 6-(trans-4-{[3-(2,3,4-Trifluorophenyl)propyl]methylamino}cyclohexyl)-3H-benzoxazol-2-one], the melting point was 269 to 274 °C.
Still for that read-out and setting: in the case of `CC(C)Cc1ccc(CCCN(C)[C@H]2CC[C@H](c3ccc4[nH]c(=O)oc4c3)CC2)cc1` (as salt: HCl) [Example 56, 6-(trans-4-{[3-(4-Isobutylphenyl)propyl]methylamino}cyclohexyl)-3H-benzoxazol-2-one] it was 162 to 165 °C; in that of `CN(CCCc1c(F)cc(F)cc1F)[C@H]1CC[C@H](c2ccc3[nH]c(=O)oc3c2)CC1` (as salt: HCl) [Example 57, 6-(trans-4-{[3-(2,4,6-Trifluorophenyl)propyl]methylamino}cyclohexyl)-3H-benzoxazol-2-one], 235 to 238 °C; in that of `CN(CCCc1nccs1)[C@H]1CC[C@H](c2ccc3[nH]c(=O)oc3c2)CC1` (as salt: HCl) [Example 59, 6-{trans-4-[Methyl(3-thiazol-2-ylpropyl)amino]cyclohexyl}-3H-benzoxazol-2-one], 237 to 239 °C.
On the same count and under the same terms, in the case of `CN(CCN(C)[C@H]1CC[C@H](c2ccc3[nH]c(=O)oc3c2)CC1)c1ccccc1` (as salt: HCl) [Example 60, 6-(trans-4-{Methyl-[2-(Methylphenylamino)ethyl]amino}cyclohexyl)-3H-benzoxazol-2-one] it was 240 to 243 °C; in that of `O=c1[nH]c2ccc([C@H]3CC[C@H](NCCCc4ccc(F)cc4)CC3)cc2[nH]1` (as salt: HCl) [Example 62, 5-{trans-4-[3-(4-Fluorophenyl)propylamino]cyclohexyl}-1,3-dihydrobenzoimidazol-2-one], 336 to 339 °C; in that of `Cc1cc2[nH]c(=O)oc2cc1[C@H]1CC[C@H](N(C)CCCc2ccc(F)cc2)CC1` (as salt: salt) [Example 64, 6-(4-{[3-(4-Fluorophenyl)propyl]methyl-amino}cyclohexyl)-5-methyl-3H-benzoxazol-2-one], 264 to 267 °C.
The same measure, in the same setting: in the case of `COc1cc2[nH]c(=O)oc2cc1[C@H]1CC[C@H](N(C)CCCc2ccc(F)cc2)CC1` (as salt: salt) [Example 65, 6-(trans-4-{[3-(4-Fluorophenyl)propyl]methylamino}cyclohexyl)-5-methoxy-3H-benzoxazol-2-one] it was 239 to 242 °C; in that of `C[C@H](N[C@H]1CC[C@H](c2ccc3[nH]c(=O)oc3c2)CC1)[C@H](O)c1ccccc1` (stereo in doubt) (as salt: HCl) [Example 12, 6-{trans-4-[(1S,2R)-2-Hydroxy-1-methyl-2-phenylethylamino]cyclohexyl}-3H-benzoxazol-2-one], 251 to 256 °C.
For orientation: IC50 means the midpoint of a concentration-inhibition curve. `O=c1[nH]c2ccc(C3=CCC(NCCCc4ccccc4)CC3)cc2o1` (stereo not drawn) [Example 6, 6-[4-(3-Phenylpropylamino)cyclohex-1-enyl]-3H-benzoxazol-2-one]: the melting point is 293 to 295 °C. For the same molecule, the IC50 in series [1] was determined as 9 nM.
The molecule `CN(CCSc1ccc(F)cc1)[C@H]1CC[C@H](c2ccc3[nH]c(=O)oc3c2)CC1` [Example 20, 6-{trans-4-[2-(4-Fluorophenylsulfanylethyl)methylamino]cyclohexyl}-3H-benzoxazol-2-one] gave an IC50 in series [1] of 25 nM. Moreover, in series [2], the “6-OHDA MED” value was 30 mg/kg and the “6-OHDA active/inactive at the given dose” value is “active”.
For `Cc1ccc(CCCN(C)[C@H]2CC[C@H](c3ccc4[nH]c(=O)oc4c3)CC2)cc1` [Example 21, 6-{trans-4-[Methyl-3-(p-Tolylpropyl)amino]cyclohexyl}-3H-benzoxazol-2-one], the IC50 in series [1] was 16 nM. In series [2], the “6-OHDA MED” value is listed as 10 mg/kg and the “6-OHDA active/inactive at the given dose” value is given as “active”.
With `CN(CCOc1ccccc1)[C@H]1CC[C@H](c2ccc3[nH]c(=O)oc3c2)CC1` [Example 22, 6-{trans-4-[Methyl(2-phenoxyethyl)amino]cyclohexyl}-3H-benzoxazol-2-one], in series [1], the IC50 worked out at 53 nM. For the same molecule, in series [2], the “6-OHDA MED” value is reported as 10 mg/kg and the “6-OHDA active/inactive at the given dose” value is recorded as “active”.
`CC(CCN(C)[C@H]1CC[C@H](c2ccc3[nH]c(=O)oc3c2)CC1)c1ccccc1` (stereo partly drawn) [Example 37b, 6-[trans-4-(Methyl-3-phenylbutylamino)cyclohexyl]-3H-benzoxazol-2-one] showed a melting point of 61 to 70 °C. For the same molecule, the IC50 in series [1] was determined as 32 nM.
Regarding `CN(C)c1ccc(CCCN(C)[C@H]2CC[C@H](c3ccc4[nH]c(=O)oc4c3)CC2)cc1` [Example 58, 6-(4-{[3(trans-4-Dimethylaminophenyl)propyl]methylamino}cyclohexyl)-3H-benzoxazol2-one], the melting point fell in the range of 182 to 184 °C. In series [1], this molecule returned an IC50 of 357 nM.

These data come from US6794402B2, “Bicyclic cyclohexylamines and their use as NMDA receptor antagonists” (Warner-Lambert Company, priority 2000, dated 2004).
